Laboratory results reported in article PMC6934184, “Selective DNA-PKcs inhibition extends the therapeutic index of localized radiotherapy and chemotherapy” (The Journal of Clinical Investigation, 2019).

Target: T1, STK32B (YANK2) (Homo sapiens, UniProt Q9NY57)
T1 construct: purchased Thermo Fisher Scientific (Life Technologies) SelectScreen
Assay: SelectScreen LanthaScreen
Format: binding
Details: read-out: % displacement
How it was run: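 SelectScreen broad panel; activity (Z'LYTE, Adapta) plus binding formats. ATP: Km app for CSF1R Z'LYTE; 10 for CAMK1 Adapta. Readout = % per kinase.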

T1 sequence (Q9NY57 whole entry): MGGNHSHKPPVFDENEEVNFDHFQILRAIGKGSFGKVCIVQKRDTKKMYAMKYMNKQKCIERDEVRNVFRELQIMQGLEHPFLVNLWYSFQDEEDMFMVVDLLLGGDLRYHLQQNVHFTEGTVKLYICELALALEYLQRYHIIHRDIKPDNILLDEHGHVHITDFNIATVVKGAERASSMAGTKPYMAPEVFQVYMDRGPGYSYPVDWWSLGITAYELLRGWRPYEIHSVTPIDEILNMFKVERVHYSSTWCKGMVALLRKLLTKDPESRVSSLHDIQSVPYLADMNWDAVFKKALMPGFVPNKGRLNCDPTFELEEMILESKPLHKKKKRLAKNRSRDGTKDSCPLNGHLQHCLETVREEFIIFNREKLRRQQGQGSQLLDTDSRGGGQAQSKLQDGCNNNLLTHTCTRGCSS

## CN(C(=O)CN1CCOCC1)c1ccc2sc3c(-c4cccc5c(=O)cc(N6CC7CCC(C6)O7)oc45)cccc3c2c1 [NU5455]
  inhibition at 1 µM: -1.4%
